Bounds are passed on as bounds.

The experiment has as its target T1, soluble guanylate cyclase (human GUCYA3/GUCYB3) overexpressed in CHO cells (Homo sapiens, UniProt Q02108+Q02153).
T1 construct: expressed in transfected cells
T1 sequence (Q02108 1-690 partner): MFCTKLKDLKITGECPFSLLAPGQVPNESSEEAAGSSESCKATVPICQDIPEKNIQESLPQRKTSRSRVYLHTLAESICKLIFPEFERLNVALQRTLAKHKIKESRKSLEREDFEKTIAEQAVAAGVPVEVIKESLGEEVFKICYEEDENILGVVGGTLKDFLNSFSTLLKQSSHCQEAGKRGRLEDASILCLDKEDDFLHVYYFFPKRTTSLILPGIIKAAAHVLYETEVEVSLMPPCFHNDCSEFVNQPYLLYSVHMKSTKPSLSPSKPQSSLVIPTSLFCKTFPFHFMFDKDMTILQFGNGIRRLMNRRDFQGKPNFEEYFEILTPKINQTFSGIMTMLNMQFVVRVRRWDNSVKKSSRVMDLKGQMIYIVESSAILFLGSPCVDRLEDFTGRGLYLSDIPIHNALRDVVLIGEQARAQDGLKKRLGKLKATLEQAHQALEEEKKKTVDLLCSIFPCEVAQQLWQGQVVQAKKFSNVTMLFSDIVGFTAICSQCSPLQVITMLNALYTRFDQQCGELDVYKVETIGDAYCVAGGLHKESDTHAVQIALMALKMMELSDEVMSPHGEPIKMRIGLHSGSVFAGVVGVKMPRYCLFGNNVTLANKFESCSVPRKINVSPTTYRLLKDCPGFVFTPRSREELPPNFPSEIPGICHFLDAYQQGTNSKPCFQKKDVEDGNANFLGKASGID
T1 sequence (Q02153 1-619): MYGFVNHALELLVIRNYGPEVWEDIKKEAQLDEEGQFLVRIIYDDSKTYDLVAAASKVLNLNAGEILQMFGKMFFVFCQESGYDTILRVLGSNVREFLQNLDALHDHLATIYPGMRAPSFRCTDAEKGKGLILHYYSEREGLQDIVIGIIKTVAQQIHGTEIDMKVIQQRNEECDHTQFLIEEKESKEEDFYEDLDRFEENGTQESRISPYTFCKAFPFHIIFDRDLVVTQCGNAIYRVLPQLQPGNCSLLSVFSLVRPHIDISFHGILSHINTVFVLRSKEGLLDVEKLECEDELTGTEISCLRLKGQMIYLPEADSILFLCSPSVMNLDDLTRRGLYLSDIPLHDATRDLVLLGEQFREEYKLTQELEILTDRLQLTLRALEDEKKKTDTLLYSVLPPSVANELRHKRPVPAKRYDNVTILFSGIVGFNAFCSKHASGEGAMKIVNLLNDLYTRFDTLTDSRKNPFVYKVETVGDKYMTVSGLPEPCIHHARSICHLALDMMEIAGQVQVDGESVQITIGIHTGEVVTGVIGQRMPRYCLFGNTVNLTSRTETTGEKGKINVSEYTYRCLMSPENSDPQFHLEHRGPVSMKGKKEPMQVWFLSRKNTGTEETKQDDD
The experiment in a line: CHO cellular assay (cGMP production, HTRF). It is filed as cell-based. Particulars: CHO K1 clone 8E10 overexpressing human sGC, Cisbio HTRF, 1 h room temperature, 1 mM IBMX, 20 uM ODQ, minimum quantification limit 0.5 nM. The procedure, abridged: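 Stable CHO K1 clone expressing human GUCYA3/GUCYB3. Compounds applied 1 h at room temperature in HBSS, 0.1% BSA, 1 mM IBMX, 20 uM ODQ, 0.5% DMSO. cGMP measured by HTRF and interpolated from a standard curve; EC50 from 4-parameter sigmoidal fit.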
A general note: TR-FRET usually uses a lanthanide donor and a delayed reading to cut background.

Turning to `Cc1cc(C2CCN(CC(F)(F)F)CC2)ccc1OCc1c(-c2cccc(-n3ncc(C(=O)O)c3C(F)(F)F)n2)sc(C)c1C` [Example 18-5, 1-(6-(4,5-Dimethyl-3-((2-methyl-4-(1-(2,2,2-trifluoroethyl)piperidin-4-yl)phenoxy)methyl)thiophen-2-yl)pyridin-2-yl)-5-(trifluoromethyl)-1H-pyrazole-4-carboxylic acid], the midpoint of the response, the EC50, lay at 3.5 nM.
Then `CCc1csc(-c2cccc(-n3ncc(C(=O)O)c3C(F)(F)F)n2)c1COc1ccc(C2CCN(CC(F)(F)F)CC2)cc1C` [Example 18-6, 1-(6-(4-Ethyl-3-((2-methyl-4-(1-(2,2,2-trifluoroethyl)piperidin-4-yl)phenoxy)methyl)thiophen-2-yl)pyridin-2-yl)-5-(trifluoromethyl)-1H-pyrazole-4-carboxylic acid], with 18 nM; and `Cc1cc(C2CCN(C(=O)C3CC3)CC2)ccc1NCc1c(C)csc1-c1cccc(-n2ncc(C(=O)O)c2C(F)(F)F)n1` [Example 19, 1-(6-(3-(((4-(1-(Cyclopropanecarbonyl)piperidin-4-yl)-2-methylphenyl)amino)methyl)-4-methylthiophen-2-yl)pyridin-2-yl)-5-(trifluoromethyl)-1H-pyrazole-4-carboxylic acid], with 1 nM; and `Cc1csc(-c2cccc(-n3ncc(C(=O)O)c3C(F)(F)F)n2)c1CNc1ccc(C2CCN(C(=O)C3CC3)CC2)cc1` [Example 20-1, 1-(6-(3-(((4-(1-(Cyclopropanecarbonyl)piperidin-4-yl)phenyl)amino)methyl)-4-methylthiophen-2-yl)pyridin-2-yl)-5-(trifluoromethyl)-1H-pyrazole-4-carboxylic acid], with 12 nM.
Then `CCc1c(C(=O)O)cnn1-c1cccc(-c2sc(C)c(C)c2CNc2ccc(C3CCN(C(=O)C4CC4)CC3)cc2C)n1` [Example 20-2, 1-(6-(3-(((4-(1-(Cyclopropanecarbonyl)piperidin-4-yl)-2-methylphenyl)amino)methyl)-4,5-dimethylthiophen-2-yl)pyridin-2-yl)-5-ethyl-1H-pyrazole-4-carboxylic acid], with ≤ 0.5 nM.
The figure for `Cc1cc(C2CCN(CC(F)(F)F)CC2)ccc1NCc1c(C)csc1-c1cccc(-n2ncc(C(=O)O)c2C(F)(F)F)n1` [Example 20-3, 1-(6-(4-Methy1-3-(((2-methy1-4-(1-(2,2,2-trifluoroethyl)piperidin-4-yl)phenyl)amino)methyl)thiophen-2-yl)pyridin-2-yl)-5-(trifluoromethyl)-1H-pyrazole-4-carboxylic acid] is 39 nM; for `CCC(=O)N1CCC(c2ccc(OCc3cc(C)sc3-c3cccc(-n4ncc(C(=O)O)c4C(F)(F)F)n3)c(C)c2)CC1` [Example 21, 1-(6-(5-Methyl-3-((2-methyl-4-(1-propionylpiperidin-4-yl)phenoxy)methyl)thiophen-2-yl)pyridin-2-yl)-5-(trifluoromethyl)-1H-pyrazole-4-carboxylic acid] it is ≤ 0.5 nM.
For the compound `CCc1cc(COc2ccc(C3CCN(C(=O)C4CC4)CC3)cc2C)c(-c2cccc(-n3ncc(C(=O)O)c3C(F)(F)F)n2)s1` [Example 22-1, 1-(6-(3-((4-(1-(Cyclopropanecarbonyl)piperidin-4-yl)-2-methylphenoxy)methyl)-5-ethylthiophen-2-yl)pyridin-2-yl)-5-(trifluoromethyl)-1H-pyrazole-4-carboxylic acid], the half-maximal effective concentration (EC50) came to 2 nM.
The figure for `O=C(O)c1cnn(-c2cccc(-c3sccc3COc3ccc4c(c3)CCN(Cc3ccccn3)C4)n2)c1C(F)(F)F` [Example 23, 1-(6-(3-(((2-(Pyridin-2-ylmethyl)-1,2,3,4-tetrahydroisoquinolin-6-yl)oxy)methyl)thiophen-2-yl)pyridin-2-yl)-5-(trifluoromethyl)-1H-pyrazole-4-carboxylic acid] is 38 nM.

The term EC50 denotes the concentration at which the effect is half-maximal. A higher EC50 goes with a less potent agent.

(Values after US9765067B2, “Thiophen-2-yl-pyridin-2-yl-1H-pyrazole-4-carboxylic acid derivatives and the use thereof as soluble guanylate cyclase activators” (Novartis AG, priority 2014, dated 2017).)
